Results on 19 compounds are retold here after patent US6355633B1, “Aryl sulfonic acids and derivatives as FSH antagonists” (American Home Products Corporation, priority 1999, dated 2002).

By IC50 is commonly meant the concentration that inhibits the measured activity by half.

One experiment concerns the target T1, FSH receptor (Homo sapiens, UniProt P23945).
T1 sequence (P23945 18-695): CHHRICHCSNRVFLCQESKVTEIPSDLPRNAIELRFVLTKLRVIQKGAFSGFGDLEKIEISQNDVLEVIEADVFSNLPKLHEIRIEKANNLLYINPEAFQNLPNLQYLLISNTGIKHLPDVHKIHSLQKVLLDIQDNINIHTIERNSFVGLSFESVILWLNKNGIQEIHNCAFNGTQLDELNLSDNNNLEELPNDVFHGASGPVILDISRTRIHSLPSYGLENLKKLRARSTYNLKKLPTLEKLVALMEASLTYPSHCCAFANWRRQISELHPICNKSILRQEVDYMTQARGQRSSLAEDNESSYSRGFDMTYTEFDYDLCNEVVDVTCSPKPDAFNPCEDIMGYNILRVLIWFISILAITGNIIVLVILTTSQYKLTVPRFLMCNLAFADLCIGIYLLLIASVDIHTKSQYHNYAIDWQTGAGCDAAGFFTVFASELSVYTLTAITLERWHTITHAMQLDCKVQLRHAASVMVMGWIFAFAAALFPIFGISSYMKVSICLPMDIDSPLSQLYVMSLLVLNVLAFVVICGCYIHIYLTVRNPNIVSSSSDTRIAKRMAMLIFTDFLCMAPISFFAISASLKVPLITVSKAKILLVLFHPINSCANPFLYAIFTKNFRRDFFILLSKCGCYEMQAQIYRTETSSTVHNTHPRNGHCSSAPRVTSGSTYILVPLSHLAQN
In words: In Vitro Bio-test Procedure of Agonists and Antagonists to the FSH Receptor (cAMP accumulation in CHO-3D2 cells). Details: expressed in transfected cells; host or cells: CHO-3D2 cells.
Settings: not given
The experiment is classed as cell-based. As to the method: In Vitro Bio-test Procedure of Agonists and Antagonists to the FSH Receptor
The compounds were subsequently diluted in sterile procedure medium (Optimem (Gibco/BRL, Grand Island, N.Y.)/0.1% BSA) prior to use in the bio-procedure.
Preparation of CHO-3D2 Cells; CHO-3D2 cells were plated into 96-well Nunc tissue culture plates at a density of 30,000 cells/well in DMEM/F12 medium (Gibco/BRL, Grand Island, N.Y.) supplemented with 5% Fetal Bovine Serum (Hyclone, Fetal Clone II), 2 mM L-glutamine and penicillin/streptomycin (100 U/mL). Cells were plated one day prior to performing the bio-procedure.
Procedure: On the day of procedure, the wells were washed two times with 100 ul/well of pre-warmed (37 deg C.) procedure medium. After aspirating the second wash, an additional 100 ul of procedure medium was added to each well and the cells pre-incubated for 30-45 minutes at 37 deg C. In a humidified incubator with 5%CO2/95% air. The cells were then challenged with varying dilutions of the test substance(s) in a 50 ul total incubation volume in procedure medium for 30 minutes at 37 deg C. in the humidified incubator. The challenge was terminated by the addition of 50 ul of 0.2 N HCl to each well. CAMP accumulation in the medium was measured by radioimmunoassay.
Test Groups: In the 96-well format, the plate is organized into 12 columns each containing 8 rows of wells. The plate was split in half to test a single compound in both agonist and antagonist mode on the same plate.
For agonist mode, compounds were tested using 5 different concentrations in a dose-response paradigm using one column as a control (challenge medium alone) in agonist mode.
The 96-well format allowed for the capability to test 4 columns of compound, using one of the remaining columns for negative control (challenge medium alone) and the other remaining column for ampositive control (ED20 of FSH alone).
The doses chosen to test each compound were extrapolated from the initial screening process (receptor binding data). Along with the test compounds, FSH was run in agonist mode using doses ranging from 0.1 ng/mL-1000 ng/mL as a postive control. Cytotoxicity of the compounds were screened by treating cells with the highest concentration of each compound used in the cAMP procedure for 30 minutes followed by washing of the cells 2 times with 100 ul PBS. The cells were then incubated for 5 min at 37 deg C. in the presence of 50 ug/mL Fluorescein diacetate and 20 ug/mL Propidium iodide in 100 ul PBS. The cells were washed two times with 100 ul PBS followed by examination of the cells under a fluorescence microscope using a 490 nm filter. Viable cells stained green throughout, while dead cells had red fluorescent nuclei.
Analysis of Results: cAMP accumulation was expressed as fmol/mL. […] Data were analyzed statistically by analysis of variance and significant differences between treatments and control determined by Dunnett's test. In antagonist mode, a Duncan's test was used.
Reference Compounds: Test compounds were compared to the effect of purified or recombinant human FSH.
On the technique in general: Cyclic AMP is a second messenger, typically raised through Gs and lowered through Gi signalling.
On to `COCCNS(=O)(=O)c1cc(C(=O)Nc2ccc(/C=C/c3ccc(NC(=O)c4ccc(OC)c(S(=O)(=O)NCCOC)c4)cc3S(=O)(=O)O)c(S(=O)(=O)O)c2)ccc1OC` [Example 30m, 2,2′-[(E)-1,2-Ethenediyl]bis[5-[[4-methoxy-3-[[(2-methoxyethyl)amino]sulfonyl]benzoyl]amino]benzenesulfonic Acid]], for which the IC50 worked out at 5800 nM. That is a single-digit micromolar value.

Compound `COc1ccc(C(=O)Nc2ccc(/C=C/c3ccc(NC(=O)c4ccc(OC)c(S(=O)(=O)N5CCCC5)c4)cc3S(=O)(=O)O)c(S(=O)(=O)O)c2)cc1S(=O)(=O)N1CCCC1` [Example 33e, 2,2′-[(E)-1,2-Ethenediyl]bis[5-[[4-methoxy-3-(1-pyrrolidinylsulfonyl)benzoyl]amino]benzenesulfonic Acid]] showed a half-maximal inhibitory concentration (IC50) of 1500 nM.

The compound `COc1ccc(C(=O)Nc2ccc(/C=C/c3ccc(NC(=O)c4ccc(OC)c(S(=O)(=O)N5CCN(C=O)CC5)c4)cc3S(=O)(=O)O)c(S(=O)(=O)O)c2)cc1S(=O)(=O)N1CCN(C=O)CC1` [Example 34b, 2,2′-[(E)-1,2-Ethenediyl]bis[5-[[3-[(4-formyl-1-piperazinyl)sulfonyl]-4-methoxybenzoyl]amino]benzenesulfonic Acid]] gave an IC50 of 1700 nM.

As to `O=C(Nc1ccc(/C=C/c2ccc(NC(=O)c3ccc(OC4CCOCC4)c(S(=O)(=O)N4CCOCC4)c3)cc2S(=O)(=O)O)c(S(=O)(=O)O)c1)c1ccc(OC2CCOCC2)c(S(=O)(=O)N2CCOCC2)c1` [Example 30r, 2,2′-[(E)-1,2-Ethenediyl]bis[5-[[3-(4-morpholinylsulfonyl)-4-[(tetrahydro-2H-pyran-4-yl)oxy]benzoyl]amino]benzenesulfonic Acid]], the IC50 amounted to 2000 nM.

Turning to `COc1ccc(C(=O)Nc2ccc(/C=C/c3ccc(NC(=O)c4ccc(OC)c(S(=O)(=O)N5CCS(=O)(=O)CC5)c4)cc3S(=O)(=O)O)c(S(=O)(=O)O)c2)cc1S(=O)(=O)N1CCS(=O)(=O)CC1` [Example 30k, 2,2′-[(E)-1,2-Ethenediyl]bis[5-[[3-[(1,1-dioxido-4-thiomorpholinyl)sulfonyl]-4-methoxybenzoyl]amino]benzenesulfonic Acid]], the IC50 came out at 1500 nM.

Take `COCCOCCOc1ccc(C(=O)Nc2ccc(/C=C/c3ccc(NC(=O)c4ccc(OCCOCCOC)c(S(=O)(=O)N5CCOCC5)c4)cc3S(=O)(=O)O)c(S(=O)(=O)O)c2)cc1S(=O)(=O)N1CCOCC1` [Example 30a, 2,2′-[(E)-1,2-Ethenediyl]bis[5-[[4-[2-(2-methoxyethoxy)ethoxy]-3-(4-morpholinylsulfonyl)benzoyl]amino]benzenesulfonic Acid]]: the IC50 was 1600 nM. This IC50 and that of the compound before are within 1.5-fold of each other.

As for `COc1ccc(C(=O)Nc2ccc(/C=C/c3ccc(NC(=O)c4ccc(OC)c(S(=O)(=O)N5CCOCC5)c4)cc3S(=O)(=O)O)c(S(=O)(=O)O)c2)cc1S(=O)(=O)N1CCOCC1` [Example 30s, 2,2′-[(E)-1,2-Ethenediyl]bis[5-[[4-methoxy-3-(4-morpholinylsulfonyl)benzoyl]amino]benzenesulfonic Acid]], the IC50 came out at 4400 nM.

Compound `COc1ccc(C(=O)Nc2ccc(CCc3ccc(NC(=O)c4ccc(S(C)(=O)=O)cc4)cc3S(=O)(=O)O)c(S(=O)(=O)O)c2)cc1S(=O)(=O)N1CCOCC1` [Example 43a, 5-[[4-Methoxy-3-(4-morpholinylsulfonyl)benzoyl]amino]-2-[2-[4-[[4-(methylsulfonyl)benzoyl]amino]-2-sulfophenyl]ethyl]benzenesulfonic Acid] returned an IC50 of 8700 nM. This IC50 is about 2-fold higher than that of the compound before.

As to `COc1ccc(C(=O)Nc2ccc(/C=C/c3ccc(NC(=O)c4ccc(OC)c(S(=O)(=O)N5CCN(C(C)=O)CC5)c4)cc3S(=O)(=O)O)c(S(=O)(=O)O)c2)cc1S(=O)(=O)N1CCN(C(C)=O)CC1` [Example 34a, 2,2′-[(E)-1,2-Ethenediyl]bis[5-[[3-[(4-acetyl-1-piperazinyl)sulfonyl]-4-methoxybenzoyl]amino]benzenesulfonic Acid]], the IC50 turned out to be 3300 nM. Against the preceding compound, the IC50 is about 2.6-fold lower.

`CSc1ccc(C(=O)Nc2ccc(/C=C/c3ccc(NC(=O)c4ccc(S(C)(=O)=O)c([N+](=O)[O-])c4)cc3S(=O)(=O)O)c(S(=O)(=O)O)c2)cc1S(=O)(=O)N1CCOCC1` [Example 30e] displayed an IC50 of 900 nM.

Consider `CS(=O)(=O)c1ccc(C(=O)Nc2ccc(/C=C/c3ccc(NC(=O)c4ccc(S(C)(=O)=O)cc4)cc3S(=O)(=O)O)c(S(=O)(=O)O)c2)cc1` [Example 30q, 2,2′-[(E)-1,2-Ethenediyl]bis[5-[[4-(methylsulfonyl)benzoyl]amino]benzenesulfonic Acid]], for which the IC50 amounted to 12000 nM.

As for `CS(=O)(=O)c1ccc(C(=O)Nc2ccc(/C=C/c3ccc(NC(=O)c4ccc(S(C)(=O)=O)c(S(=O)(=O)N5CCOCC5)c4)cc3S(=O)(=O)O)c(S(=O)(=O)O)c2)cc1S(=O)(=O)N1CCOCC1` [Example 30d, 2,2′-[(E)-1,2-Ethenediyl]bis[5-[[4-(methylsulfonyl)-3-(4-morpholinylsulfonyl)benzoyl]amino]benzenesulfonic Acid]], the IC50 worked out at 1600 nM. Compared with the last compound, the IC50 is about 7.5-fold lower.

`COCCOc1ccc(C(=O)Nc2ccc(/C=C/c3ccc(NC(=O)c4ccc(OCCOC)c(S(=O)(=O)N5CCOCC5)c4)cc3S(=O)(=O)O)c(S(=O)(=O)O)c2)cc1S(=O)(=O)N1CCOCC1` [Example 30t, 2,2′-[(E)-1,2-Ethenediyl]bis[5-[[4-(2-methoxyethoxy)-3-(4-morpholinylsulfony)benzoyl]amino]benzenesulfonic Acid]] displayed an IC50 of 1400 nM.

The compound `COCCNS(=O)(=O)c1cc(C(=O)Nc2ccc(/C=C/c3ccc(NC(=O)c4ccc(S(C)(=O)=O)c([N+](=O)[O-])c4)cc3S(=O)(=O)O)c(S(=O)(=O)O)c2)ccc1OC` [Example 30f] yielded an IC50 of 3100 nM.

`COc1ccc(C(=O)Nc2ccc(/C=C/c3ccc(NC(=O)c4ccc(OC)c(S(=O)(=O)N5CCSCC5)c4)cc3S(=O)(=O)O)c(S(=O)(=O)O)c2)cc1S(=O)(=O)N1CCSCC1` [Example 33d, 2,2′-[(E)-1,2-Ethenediyl]bis[5-[[4-methoxy-3-(4-thiomorpholinylsulfonyl)benzoyl]amino]benzenesulfonic Acid]] registered a 50% inhibitory concentration (IC50) of 2600 nM. The IC50 values of the last two compounds are within 1.5-fold of each other.

The compound `CCS(=O)(=O)c1ccc(C(=O)Nc2ccc(/C=C/c3ccc(NC(=O)c4ccc(S(=O)(=O)CC)cc4)cc3S(=O)(=O)O)c(S(=O)(=O)O)c2)cc1` [Example 32f, 2,2′-[(E)-1,2-Ethenediyl]bis[5-[[4-(ethylsulfonyl)benzoyl]amino]benzenesulfonic Acid]] returned an IC50 of 4200 nM.

Staying with this experiment, now noted: antagonist mode, inhibition of hFSH-induced cAMP accumulation (ED20 of FSH, […]), CHO-3D2 cells.
The compound “2,2′-[(E)-1,2-Ethenediyl]bis[5-[[4-(methylthio)-3-(4-morpholinylsulfonyl)benzoyl]amino]benzenesulfonic Acid] [Example 30b]” showed an IC50 of 1300 nM.

`COc1ccc(C(=O)Nc2ccc(/C=C/c3ccc(NC(=O)c4ccc(S(C)(=O)=O)cc4)cc3S(=O)(=O)O)c(S(=O)(=O)O)c2)cc1S(=O)(=O)N1CCOCC1` [Example 30g] registered an IC50 of 2500 nM.

Turning to `CS(=O)(=O)c1ccc(C(=O)Nc2ccc(/C=C/c3ccc(NC(=O)c4ccc(S(C)(=O)=O)c([N+](=O)[O-])c4)cc3S(=O)(=O)O)c(S(=O)(=O)O)c2)cc1[N+](=O)[O-]` [Example 30c, 2.2′-[(E)-1,2-Ethenediyl]bis[5-[[(4-methylsulfonyl)-3-(nitro)-benzoyl]amino]benzenesulfonic Acid]], the IC50 turned out to be 3600 nM.
